# What was measured:
# windgrass [1] = experiment: Test C pre-/postemergence test; assay type: in vivo, Apera spica-venti; details: Postemergence; for Plant response rating, Windgrass: scale 0 to 100, 0 no effect, 100 complete control
# Description: Seeds of plant species selected from blackgrass (Alopecurus myosuroides), downy brome (Bromus tectorum), green foxtail (Setaria viridis), Italian ryegrass (Lolium multiflorum), wheat (Triticum aestivum), wild oat (Avena fatua), catchweed bedstraw (Galium aparine), Russian thistle (Salsola kali), […] (Cynodon dactylon), Surinam grass (Brachiaria decumbens), cocklebur (Xanthium strumarium), corn (Zea mays), crabgrass (Digitaria sanguinalis), woolly cupgrass (Eriochloa villosa), giant foxtail (Setaria faberii), Goosegrass (Eleusin indica), johnsongrass (Sorghum halepense), kochia (Kochia scoparia), lambsquarters (Chenopodium album), morningglory (Ipomoea coccinea), eastern black nightshade (Solanum ptycanthum), yellow nutsedge (Cyperus esculentus), pigweed (Amaranthus retroflexus), common ragweed (Ambrosia elation), soybean (Glycine max), common (oilseed) sunflower (Helianthus annuus), and velvetleaf (Abutilon theophrasti) were planted and treated preemergence with test chemicals formulated in a non-phytotoxic solvent mixture which included a surfactant. At the same time, plants selected from these crop and weed species and also winter barley (Hordeum vulgare), canarygrass (Phalaris minor), and chickweed (Stellaria media) were treated with postemergence applications of some of the test chemicals formulated in the same manner. Plants ranged in height from 2 to 18 cm (1- to 4-leaf stage) for postemergence treatments. […] At time of treatment, test pots were flooded to 3 cm above the soil surface, treated by application of test compounds directly to the paddy water, and then maintained at that water depth for the duration of the test. […] A dash (-) response means no test result.
# canarygrass = experiment: Test C postemergence test; assay type: in vivo, Phalaris minor; details: for Plant response rating (0 to 100), Canarygrass: 31 g ai/ha; for Plant response rating, Canarygrass: scale 0 to 100, 0 no effect, 100 complete control
# Experimental: At the same time, plants selected from these crop and weed species and also winter barley (Hordeum vulgare), canarygrass (Phalaris minor), and chickweed (Stellaria media) were treated with postemergence applications of some of the test chemicals formulated in the same manner. Plants ranged in height from 2 to 18 cm (1- to 4-leaf stage) for postemergence treatments. […] At time of treatment, test pots were flooded to 3 cm above the soil surface, treated by application of test compounds directly to the paddy water, and then maintained at that water depth for the duration of the test. Treated plants and controls were maintained in a greenhouse for 13 to 15 days, after which time all species were compared to controls and visually evaluated. […] A dash (-) response means no test result.
# green foxtail = experiment: Test D preemergence test; assay type: in vivo, Setaria viridis; details: scale 0 to 100
# Description: (§1) Seeds of plant species selected from annual bluegrass (Poa annua), blackgrass (Alopecurus myosuroides), downy bromegrass (Bromus tectorum), field violet (Viola arvensis), green foxtail (Setaria viridis), Italian ryegrass (Lolium multiflorum), littleseed canarygrass (Phalaris minor), spring wheat (Triticum aestivum), wild oat (Avena fatua), […]), winter barley (Hordeum vulgare), and winter wheat (Triticum aestivum) were planted and treated preemergence with test chemicals formulated in a non-phytotoxic solvent mixture which included a surfactant. […] A dash (-) response means no test result.
# windgrass [2] = experiment: Test D preemergence test; assay type: in vivo, Apera spica-venti; details: scale 0 to 100
# Description: as §1
# common chickweed = experiment: Test F preemergence test; assay type: in vivo, Stellaria media; details: scale 0 to 100; for Chickweed plant response rating: 62 g ai/ha
# Method in brief: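 Compound in a non-phytotoxic solvent blend with surfactant is applied preemergence to planted seeds or postemergence to sugarcane plants. Plants and controls stay in the greenhouse 14 to 21 days before visual comparison.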
# broadleaf signalgrass = experiment: Test G preemergence test; assay type: in vivo, Brachiaria platyphylla; details: scale 0 to 100
# cotton = experiment: Test G preemergence test; assay type: in vivo, Gossypium hirsutum; details: scale 0 to 100
# eastern black nightshade = experiment: Test G preemergence test; assay type: in vivo, Solanum ptycanthum; details: scale 0 to 100
# fall panicum = experiment: Test G preemergence test; assay type: in vivo, Panicum dichotomiflorum; details: scale 0 to 100
# giant foxtail = experiment: Test G preemergence test; assay type: in vivo, Setaria faberii; details: scale 0 to 100
# lambsquarters = experiment: Test G preemergence test; assay type: in vivo, Chenopodium album; details: scale 0 to 100
# large crabgrass = experiment: Test G preemergence test; assay type: in vivo, Digitaria sanguinalis; details: scale 0 to 100
# millet = experiment: Test G preemergence test; assay type: in vivo, Panicum miliaceum; details: scale 0 to 100
compound,measurement,setting,value
Cc1cc[n+]([O-])c([S+]([O-])Cc2c(C(F)(F)F)nn(C)c2OC(F)F)c1 (centres unmarked) [Compound 1],"Plant response rating (0 to 100), Windgrass",windgrass [1]; 31 g ai/ha,0
same,"Plant response rating (0 to 100), Windgrass",windgrass [1]; 62 g ai/ha,10
same,"Plant response rating, Windgrass",windgrass [1]; 125 g ai/ha,60
same,"Plant response rating, Windgrass",windgrass [1]; 250 g ai/ha,85
same,"Plant response rating (0 to 100), Canarygrass",canarygrass,0
same,"Plant response rating, Canarygrass",canarygrass; 62 g ai/ha,0
same,"Plant response rating, Canarygrass",canarygrass; 125 g ai/ha,0
same,"Plant response rating, Canarygrass",canarygrass; 250 g ai/ha,0
same,"Plant response rating, Foxtail, Green",green foxtail; 31 g ai/ha,0
same,"Plant response rating, Foxtail, Green",green foxtail; 62 g ai/ha,95
same,"Plant response rating, Foxtail, Green",green foxtail; 125 g ai/ha,100
same,"Plant response rating, Foxtail, Green",green foxtail; 250 g ai/ha,100
same,"Plant response rating, Windgrass",windgrass [2]; 31 g ai/ha,10
same,"Plant response rating, Windgrass",windgrass [2]; 62 g ai/ha,70
same,"Plant response rating, Windgrass",windgrass [2]; 125 g ai/ha,100
same,"Plant response rating, Windgrass",windgrass [2]; 250 g ai/ha,100
same,"Plant response rating, Chickweed","common chickweed; 8 g ai/ha, preemergence",40
same,Chickweed plant response rating,common chickweed; Preemergence,100
same,"Plant response rating, Chickweed","common chickweed; Preemergence, 16 g ai/ha",60
same,"Plant response rating, Chickweed","common chickweed; Preemergence, 31 g ai/ha",98
same,"Plant response rating, Signalgrass",broadleaf signalgrass; 31 g ai/ha,20
same,"Plant response rating, Signalgrass",broadleaf signalgrass; 62 g ai/ha,70
same,"Plant response rating, Signalgrass",broadleaf signalgrass; 125 g ai/ha,70
same,"Plant response rating, Signalgrass",broadleaf signalgrass; 250 g ai/ha,100
same,"Plant response rating, Cotton",cotton; 31 g ai/ha,0
same,"Plant response rating, Cotton",cotton; 62 g ai/ha,10
same,"Plant response rating, Cotton",cotton; 125 g ai/ha,15
same,"Plant response rating, Cotton",cotton; 250 g ai/ha,20
same,"Plant response rating, Nightshade",eastern black nightshade; 31 g ai/ha,0
same,"Plant response rating, Nightshade",eastern black nightshade; 62 g ai/ha,30
same,"Plant response rating, Nightshade",eastern black nightshade; 125 g ai/ha,100
same,"Plant response rating, Nightshade",eastern black nightshade; 250 g ai/ha,100
same,"Plant response rating, Fall Panicum",fall panicum; 31 g ai/ha,0
same,"Plant response rating, Fall Panicum",fall panicum; 62 g ai/ha,10
same,"Plant response rating, Fall Panicum",fall panicum; 125 g ai/ha,30
same,"Plant response rating, Fall Panicum",fall panicum; 250 g ai/ha,100
same,"Plant response rating, Foxtail, Giant",giant foxtail; 31 g ai/ha,20
same,"Plant response rating, Foxtail, Giant",giant foxtail; 62 g ai/ha,95
same,"Plant response rating, Foxtail, Giant",giant foxtail; 125 g ai/ha,100
same,"Plant response rating, Foxtail, Giant",giant foxtail; 250 g ai/ha,100
same,"Plant response rating, Lambsquarters",lambsquarters; 31 g ai/ha,0
same,"Plant response rating, Lambsquarters",lambsquarters; 62 g ai/ha,100
same,"Plant response rating, Lambsquarters",lambsquarters; 125 g ai/ha,100
same,"Plant response rating, Lambsquarters",lambsquarters; 250 g ai/ha,100
same,"Plant response rating, Crabgrass, Large",large crabgrass; 31 g ai/ha,10
same,"Plant response rating, Crabgrass, Large",large crabgrass; 62 g ai/ha,100
same,"Plant response rating, Crabgrass, Large",large crabgrass; 125 g ai/ha,100
same,"Plant response rating, Crabgrass, Large",large crabgrass; 250 g ai/ha,100
same,"Plant response rating, Millet",millet; 31 g ai/ha,0
same,"Plant response rating, Millet",millet; 62 g ai/ha,25
same,"Plant response rating, Millet",millet; 125 g ai/ha,20
same,"Plant response rating, Millet",millet; 250 g ai/ha,100
Cc1cc[n+]([O-])c(S(=O)(=O)Cc2c(C(F)(F)F)nn(C)c2OC(F)F)c1 [Compound 2],"Plant response rating (0 to 100), Windgrass",windgrass [1]; 31 g ai/ha,0
same,"Plant response rating (0 to 100), Windgrass",windgrass [1]; 62 g ai/ha,10
same,"Plant response rating, Windgrass",windgrass [1]; 125 g ai/ha,50
same,"Plant response rating, Windgrass",windgrass [1]; 250 g ai/ha,70
same,"Plant response rating (0 to 100), Canarygrass",canarygrass,0
same,"Plant response rating, Canarygrass",canarygrass; 62 g ai/ha,0
same,"Plant response rating, Canarygrass",canarygrass; 125 g ai/ha,0
same,"Plant response rating, Canarygrass",canarygrass; 250 g ai/ha,0
same,"Plant response rating, Foxtail, Green",green foxtail; 31 g ai/ha,0
same,"Plant response rating, Foxtail, Green",green foxtail; 62 g ai/ha,30
same,"Plant response rating, Foxtail, Green",green foxtail; 125 g ai/ha,55
same,"Plant response rating, Foxtail, Green",green foxtail; 250 g ai/ha,65
same,"Plant response rating, Windgrass",windgrass [2]; 31 g ai/ha,100
same,"Plant response rating, Windgrass",windgrass [2]; 62 g ai/ha,100
same,"Plant response rating, Windgrass",windgrass [2]; 125 g ai/ha,100
same,"Plant response rating, Windgrass",windgrass [2]; 250 g ai/ha,100
same,"Plant response rating, Chickweed","common chickweed; 8 g ai/ha, preemergence",10
same,Chickweed plant response rating,common chickweed; Preemergence,100
same,"Plant response rating, Chickweed","common chickweed; Preemergence, 16 g ai/ha",80
same,"Plant response rating, Chickweed","common chickweed; Preemergence, 31 g ai/ha",95
same,"Plant response rating, Signalgrass",broadleaf signalgrass; 31 g ai/ha,0
same,"Plant response rating, Signalgrass",broadleaf signalgrass; 62 g ai/ha,50
same,"Plant response rating, Signalgrass",broadleaf signalgrass; 125 g ai/ha,65
same,"Plant response rating, Signalgrass",broadleaf signalgrass; 250 g ai/ha,65
same,"Plant response rating, Cotton",cotton; 31 g ai/ha,0
same,"Plant response rating, Cotton",cotton; 62 g ai/ha,0
same,"Plant response rating, Cotton",cotton; 125 g ai/ha,0
same,"Plant response rating, Cotton",cotton; 250 g ai/ha,0
same,"Plant response rating, Nightshade",eastern black nightshade; 31 g ai/ha,0
same,"Plant response rating, Nightshade",eastern black nightshade; 62 g ai/ha,40
same,"Plant response rating, Nightshade",eastern black nightshade; 125 g ai/ha,40
same,"Plant response rating, Nightshade",eastern black nightshade; 250 g ai/ha,45
same,"Plant response rating, Fall Panicum",fall panicum; 31 g ai/ha,25
same,"Plant response rating, Fall Panicum",fall panicum; 62 g ai/ha,65
same,"Plant response rating, Fall Panicum",fall panicum; 125 g ai/ha,100
same,"Plant response rating, Fall Panicum",fall panicum; 250 g ai/ha,100
same,"Plant response rating, Foxtail, Giant",giant foxtail; 31 g ai/ha,0
same,"Plant response rating, Foxtail, Giant",giant foxtail; 62 g ai/ha,35
same,"Plant response rating, Foxtail, Giant",giant foxtail; 125 g ai/ha,100
same,"Plant response rating, Foxtail, Giant",giant foxtail; 250 g ai/ha,100
same,"Plant response rating, Lambsquarters",lambsquarters; 31 g ai/ha,0
same,"Plant response rating, Lambsquarters",lambsquarters; 62 g ai/ha,0
same,"Plant response rating, Lambsquarters",lambsquarters; 125 g ai/ha,10
same,"Plant response rating, Lambsquarters",lambsquarters; 250 g ai/ha,15
same,"Plant response rating, Crabgrass, Large",large crabgrass; 31 g ai/ha,0
same,"Plant response rating, Crabgrass, Large",large crabgrass; 62 g ai/ha,75
same,"Plant response rating, Crabgrass, Large",large crabgrass; 125 g ai/ha,100
same,"Plant response rating, Crabgrass, Large",large crabgrass; 250 g ai/ha,100
same,"Plant response rating, Millet",millet; 31 g ai/ha,0
same,"Plant response rating, Millet",millet; 62 g ai/ha,0
same,"Plant response rating, Millet",millet; 125 g ai/ha,75
same,"Plant response rating, Millet",millet; 250 g ai/ha,100

# — patent US20100298141A1, “SUBSTITUTED PYRIDINE N-OXIDE HERBICIDES” (E. I. DU PONT DE NEMOURS AND COMPANY, priority 2007, published 2010)
